Test results from patent publication US11352352B2, “Aminopyrimidine compound, preparation method therefor and use thereof” (BEIJING ADAMADLE BIOTECHNOLOGY LIMITED LIABILITY COMPANY, priority 2017, dated 2022).

Experiments:
NCI-H1975 = assay: Cell proliferation inhibition experiment, CellTiter-Glo (CTG) method; type: cell-based; settings: for IC50: NCI-H1975 cells, CTG, 3 days; for A-431/NCI-H1975 Selectivity: ratio of A-431 IC50 to NCI-H1975 IC50
In short: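 NCI-H1975 cells with viability above 90% by trypan blue were seeded at 90 μL per well in black 96-well plates and incubated overnight at 37° C., 5% CO2. Compounds were added at nine concentrations in triplicate, and viability was measured with CellTiter-Glo luminescence on EnVision. IC50 came from non-linear S-curve fitting in GraphPad Prism 5.0.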

PC-9 = assay: as above; type: cell-based; settings: PC-9 cells, 3 days
In short: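 Cells in log-phase growth (viability above 90% by trypan blue) were seeded at 90 μL per well in black-walled, clear-bottom 96-well plates and incubated overnight at 37° C., 5% CO2. A T0 plate was read the next day. Test compounds were added at nine concentrations in triplicate with a solvent control. Viability was measured by CellTiter-Glo luminescence on EnVision, and IC50 came from non-linear S-curve fitting in GraphPad Prism 5.0.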

A-431 = assay: as above; type: cell-based; settings: A-431 cells, 3 days
In short: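 IC50 values come from sigmoidal dose-response fits of percent survival, measured by CellTiter-Glo luminescence after 3 days' culture with compound. Nine-point, threefold series in triplicate, starting at 30 μM for A-431 and at 1.111 μM for NCI-H1975 and PC-9.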

P-gp = target: T1, P-gp (Homo sapiens, UniProt P08183); assay: P-gp substrate evaluation experiment (MDCKII-MDR1 Transwell drug penetration test); type: in vitro ADME; settings: dog, MDCK-MDR1, pH 7.4; read-out: ER (Efflux Ratio)
T1 construct: expressed in transfected cells; host or cells: MDCKII-MDR1 (MDCKII canine kidney cells expressing MDR1)
T1 sequence (P08183 whole entry): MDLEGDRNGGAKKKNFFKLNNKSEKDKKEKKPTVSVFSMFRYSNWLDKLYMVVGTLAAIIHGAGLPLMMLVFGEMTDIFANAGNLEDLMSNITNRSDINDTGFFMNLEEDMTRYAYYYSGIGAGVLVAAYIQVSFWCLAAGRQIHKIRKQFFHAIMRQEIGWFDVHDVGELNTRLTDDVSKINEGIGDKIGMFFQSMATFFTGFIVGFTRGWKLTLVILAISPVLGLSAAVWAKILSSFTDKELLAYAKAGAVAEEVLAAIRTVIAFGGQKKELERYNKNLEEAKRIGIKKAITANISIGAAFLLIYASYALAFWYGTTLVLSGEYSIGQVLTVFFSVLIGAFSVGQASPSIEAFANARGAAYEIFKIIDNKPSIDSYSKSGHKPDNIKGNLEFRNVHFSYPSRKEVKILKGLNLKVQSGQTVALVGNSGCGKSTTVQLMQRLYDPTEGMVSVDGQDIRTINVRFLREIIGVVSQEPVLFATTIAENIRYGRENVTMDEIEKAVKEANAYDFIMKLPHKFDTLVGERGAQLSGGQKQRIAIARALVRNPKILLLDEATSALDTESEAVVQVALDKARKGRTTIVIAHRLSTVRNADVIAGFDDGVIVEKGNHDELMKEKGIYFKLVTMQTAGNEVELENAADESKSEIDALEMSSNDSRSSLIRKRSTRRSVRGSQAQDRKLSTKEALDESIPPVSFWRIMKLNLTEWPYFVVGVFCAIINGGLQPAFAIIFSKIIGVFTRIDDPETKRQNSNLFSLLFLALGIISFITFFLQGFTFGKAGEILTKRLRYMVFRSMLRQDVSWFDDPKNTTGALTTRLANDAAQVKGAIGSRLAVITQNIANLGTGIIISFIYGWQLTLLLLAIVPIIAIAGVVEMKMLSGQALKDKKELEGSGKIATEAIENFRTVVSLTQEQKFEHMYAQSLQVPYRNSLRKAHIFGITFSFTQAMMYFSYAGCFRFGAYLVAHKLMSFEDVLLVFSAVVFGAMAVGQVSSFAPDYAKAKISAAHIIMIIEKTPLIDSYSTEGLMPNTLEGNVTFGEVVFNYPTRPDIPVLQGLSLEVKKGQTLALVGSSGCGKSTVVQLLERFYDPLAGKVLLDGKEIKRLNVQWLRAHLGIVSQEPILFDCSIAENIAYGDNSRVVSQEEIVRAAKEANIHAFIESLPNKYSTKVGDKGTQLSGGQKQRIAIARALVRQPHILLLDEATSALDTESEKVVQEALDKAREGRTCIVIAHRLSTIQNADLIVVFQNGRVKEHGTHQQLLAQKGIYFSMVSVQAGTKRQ
Method: P-gp Substrate Evaluation Experiment
Cell Culture • 1) High glucose DMEM medium containing L-glutamine was used and 10% fetal bovine serum, 0.1 mg/mL streptomycin and 0.6 mg/mL penicillin were added. • 2) MDCKII-MDR1 was cultured in a T-75 cell culture bottle. The incubator was set at the condition of 37° C., 5% CO2 and 95% relative humidity. Cells could be inoculated in Transwell when the cell confluence reached 70-90%. • 3) Before cell plant, 50 μL cell culture medium was added to each well in the upper chamber of the Transwell, and […] cell culture medium was added to the lower chamber of the Transwell.
Inoculation of MDCKII-MDR1 Cells • 1) Cell suspension was added to the upper chamber of the 96-well Transwell plate with […] each well, and the final inoculation density was 5.45×10^5 cells/cm^2. • 2) The medium was changed 48 hours after inoculation, the culture was carried out for 4-7 days, and the medium was changed every other day.
Evaluation of Cell Monolayer Integrity • 1) After 4-7 days of culture, MDCKII-MDR1 and MDKII should merge and differentiate completely. At this time, they could be applied to penetration test. • 2) The resistance of cell monolayer was measured by a resistance meter (Millipore, USA) and the resistance of each well was recorded. • 3) After finishing the detection, the Transwell plate was put back into the incubator. • 4) Resistance value was calculated: Resistance measured (ohms)×layer area (cm^2)=TEER value (ohm·cm^2)
If TEER value was less than 42 ohms·cm^2, the well can not be used for penetration testing.
Drug Penetration Test • 1) The MDCKII-MDR1 Transwell plate was taken out from the incubator. The cell monolayer was rinsed with HBSS buffer (25 mM HEPES, pH 7.4) twice and incubated for 30 minutes at 37° C. • 2) The transport rate of compounds from the top to the bottom was determined. […] 70 μL supernatant was drawn, diluted with equal volume of water and then subjected to LC-MS/MS analysis. All samples were prepared in three parallel ways. • 6) The cell monolayer integrity after 2-hour incubation was evaluated by leakage of fluorescent yellow, HBSS (25 mM HEPES, pH 7.4) was used to dilute the stock solution of fluorescent yellow till the final concentration was 100 μM. 100 μL fluorescent yellow solution was added to each well in the upper chamber of the Transwell plate and 300 μL HBSS (25 mM HEPES, pH 7.4) was added to each well in the lower chamber of the Transwell plate. After incubation at 37° C. for 30 minutes, 80 μL solution was drawn respectively from each well in the upper and lower chamber to a new 96-well plate. The fluorescence was determined at 485 nm as excitation wavelength and 530 nm as emission wavelength by using a microplate reader.
Data calculation was carried out through Excel, the apparent permeability index (Papp, cm/s) of compounds was calculated through the formula shown as follow: […]
wherein, the membrane area in the formula is the membrane area of Transwell-96 plate (0.143 cm^2); the unit of incubation time is second (s).
Efflux ratio was calculated through the formula shown as follow: […]

SMILES | IC50 (NCI-H1975; Homo sapiens, NCI-H1975, 72 h) [nM] | IC50 (PC-9; Homo sapiens, PC-9, 72 h) [nM] | IC50 (A-431; Homo sapiens, A-431, 72 h) [nM] | efflux ratio at 2 h (P-gp) | IC50 (NCI-H1975) [nM] | IC50 (PC-9) [nM] | IC50 (A-431) [nM] | A-431/NCI-H1975 Selectivity (NCI-H1975)
C=CC(=O)Nc1cc(Nc2cc(-c3ccc4c(cnn4C)c3)ncn2)c(OC)cc1N1CCC(N(C)C)CC1 [compound 26] | 10.4 | 9.1 | 216 | 5.79 |  |  |  | 20.7
C=CC(=O)Nc1cc(Nc2nccc(-c3ccc4c(cnn4C)c3)n2)c(OC)cc1N(C)CCN(C)C [compound 3] | 4.1 | 7.9 | 491 | 5.87 |  |  |  | 120.3
C=CC(=O)Nc1cc(Nc2cc(-c3ccc4ncsc4c3)ncn2)c(OC)cc1NCCN(C)C [compound 251] | 12.5 | 7 | 1100 | 42.6 |  |  |  | 88.2
C=CC(=O)Nc1cc(Nc2cc(-c3ccc4cnn(C)c4c3)ncn2)c(OC(F)F)cc1N(C)CCN(C)C [compound 176] | 21.2 | 4.8 | 1080 | 3.98 |  |  |  | 50.9
C=CC(=O)Nc1cc(Nc2cc(-c3ccc4cnn(C)c4c3)ncn2)c(OC)cc1N1CCC(N(C)C)CC1 [compound 173] | 22.7 | 7.3 | 1050 | 32.2 |  |  |  | 46.5
C=CC(=O)Nc1cc(Nc2cc(-c3ccc4c(cnn4C)c3)ncn2)c(OC(F)F)cc1N1CCN(CCN(C)C)CC1 [compound 115] | 5.3 | 9 | 533 | 41.9 |  |  |  | 100.5
C=CC(=O)Nc1cc(Nc2cc(-c3ccc4c(cnn4C)c3)ncn2)c(OC)cc1N1CCN(CCO)CC1 [compound 267] | 16.1 | 29.3 | 1040 | 14.6 |  |  |  | 64.4
C=CC(=O)Nc1cc(Nc2cc(-c3ccc4c(cnn4C)c3)ncn2)c(OC)cc1N(C)CCN(CC)CC [compound 62] | 33.5 | 15.7 | 1170 | 2.44 |  |  |  | 35.0
C=CC(=O)Nc1cc(Nc2cc(-c3ccc4c(cnn4C)c3)ncn2)c(OC)cc1N1C[C@@H](C)N(C)[C@@H](C)C1 [compound 24] | 11.8 | 8.1 | 1060 | 1.05 |  |  |  | 90.1
C=CC(=O)Nc1cc(Nc2cc(-c3ccc4cnn(C)c4c3)ncn2)c(OC)cc1N1CCC(N2CCC(OC)C2)CC1 (stereo not shown) [compound 203] | 8.1 | 7.2 | 982 | 6.51 |  |  |  | 121.2
C=CC(=O)Nc1cc(Nc2cc(-c3ccc4c(cnn4CC)c3)ncn2)c(OC)cc1N1CCN(CCN(C)C)CC1 [compound 116] | 9.1 | 8.2 | 654 | 67.9 |  |  |  | 71.9
C=CC(=O)Nc1cc(Nc2cc(-c3ccc4c(cnn4C)c3)ncn2)c(OC)cc1N(C)CCN(C)C(C)C [compound 138] | 16.8 | 12.3 | 946 | 2.17 |  |  |  | 56.3
C=CC(=O)Nc1cc(Nc2cc(-c3ccc4ncsc4c3)ncn2)c(OC)cc1N1CCN(CCN(C)C)CC1 [compound 250] | 12.5 | 12.7 | 1020 | 15.8 |  |  |  | 81.9
C=CC(=O)Nc1c(N(C)CCN(C)C)cc(OC)c(Nc2cc(-c3ccc4cnn(C)c4c3)ncn2)c1F [compound 172] | 18.6 | 16.3 | 954 | 43.9 |  |  |  | 51.3
C=CC(=O)Nc1cc(Nc2cc(-c3ccc4cnn(C)c4c3)ncn2)c(OC(F)F)cc1N1CCC(N2CCCC2)CC1 [compound 164] | 12.6 | 23.2 | 591 | 34.4 |  |  |  | 46.9
C=CC(=O)Nc1cc(Nc2cc(-c3ccc4c(cnn4C)c3)ncn2)c(OC)cc1OCCN(C)C [compound 104] | 6 | 14.2 | 544 | 3.12 |  |  |  | 90.6
C=CC(=O)Nc1cc(Nc2cc(-c3ccc4c(cnn4C)c3)ncn2)c(OC)cc1N1CCN(C)CC1 [compound 8] | 3.5 | 27.3 | 872 | 3.14 |  |  |  | 251.1

Now from value to molecule, other results behind:

IC50 (NCI-H1975; Homo sapiens, NCI-H1975, 72 h) [nM] | IC50 (PC-9; Homo sapiens, PC-9, 72 h) [nM] | IC50 (A-431; Homo sapiens, A-431, 72 h) [nM] | efflux ratio at 2 h (P-gp) | IC50 (NCI-H1975) [nM] | IC50 (PC-9) [nM] | IC50 (A-431) [nM] | SMILES | A-431/NCI-H1975 Selectivity (NCI-H1975)
26.3 | 10.7 | 1950 | 6.12 |  |  |  | C=CC(=O)Nc1cc(Nc2cc(-c3ccc4c(cnn4C)c3)ncn2)c(OC)cc1N1CCC(C2CCN(C)CC2)CC1 [compound 34] | 74.1
8.1 | 12.1 | 773 | 5.87 |  |  |  | C=CC(=O)Nc1cc(Nc2cc(-c3ccc4c(cnn4C)c3)ncn2)c(OC)cc1N1CCC(N2CC(OC)C2)CC1 [compound 206] | 95.4
8 | 13.1 | 746 | 55.7 |  |  |  | C=CC(=O)Nc1cc(Nc2cc(-c3ccc4c(cnn4C)c3)ncn2)c(OC)cc1N1CCC(N2CCN(C(C)=O)CC2)CC1 [compound 129] | 93.3
3.2 | 5.7 | 567 | 18.1 |  |  |  | C=CC(=O)Nc1cc(Nc2cc(-c3ccc4c(cnn4C)c3)ncn2)c(OC)cc1N1CCC(N2CCCC2)CC1 [compound 108] | 177.3
 |  |  | 1.67 | 14.2 | 21.6 | 387 | C=CC(=O)Nc1cc(Nc2cc(-c3ccc4c(cnn4C)c3)ncn2)c(OC)cc1N1CCC(N2CCOCC2)CC1 [compound 27] | 27.2
5.7 | 15.3 | 654 | 20 |  |  |  | C=CC(=O)Nc1cc(Nc2cc(-c3ccc4c(cnn4C)c3)ncn2)c(OC)cc1N1CCC(N2C[C@@H](C)N(C)[C@@H](C)C2)CC1 [compound 100] | 114.7
10.4 | 11.7 | 983 | 11.4 |  |  |  | C=CC(=O)Nc1cc(Nc2cc(-c3ccc4c(cnn4C)c3)ncn2)c(OC)cc1N1CCC(N2CCN(C3COC3)CC2)CC1 [compound 210] | 94.5
8 | 19.2 | 648 | 2.28 |  |  |  | C=CC(=O)Nc1cc(Nc2cc(-c3ccc4c(cnn4C)c3)ncn2)c(OC)cc1N1CCC(N2C[C@@H](C)O[C@@H](C)C2)CC1 [compound 103] | 81.0
5.6 | 8.2 | 813 | 7.7 |  |  |  | C=CC(=O)Nc1cc(Nc2cc(-c3ccc4c(cnn4C)c3)ncn2)c(OC)cc1N1CCC(N2CCN(C)CC2)CC1 [compound 33] | 145.7
